Source: patent publication US9249132B2, “Substituted bicyclic aromatic compounds as S-nitrosoglutathione reductase inhibitors” (Nivalis Therapeutics, Inc., priority 2010, dated 2016)

Tests used:
GSNOR = molecular target: T1, GSNOR (Homo sapiens, UniProt P11766); test: GSNOR assay (inhibition of GSNOR activity, change in 340 nm absorbance); format: biochemical; settings: 100 mM NaPO4 pH 7.4, 0.240 mM GSNO, 0.300 mM NADH, 0.5 μg/mL GSNO Reductase, 1% DMSO, 25° C.
T1 construct: made in house; host or cells: E. coli
Experimental: Various compounds were tested in vitro for their ability to inhibit GSNOR activity.
GSNOR expression and purification is described in Biochemistry 2000, 39, 10720-10729.
GSNOR Fermentation: Pre-cultures were grown from stabs of a GSNOR glycerol stock in 2XYT media containing 100 ug/ml ampicillin after an overnight incubation at 37° C. Cells were then added to fresh 2XYT (4 L) containing ampicillin and grown to an OD (A600) of 0.6-0.9 at 37° C. before induction. GSNOR expression was induced with 0.1% arabinose in an overnight incubation at 20° C.
GSNOR Purification: E. coli cell paste was lysed by nitrogen cavitation and the clarified lysate purified by Ni affinity chromatography on an AKTA FPLC (Amersham Pharmacia). The column was eluted in 20 mM Tris pH 8.0/250 mM NaCl with a 0-500 mM imidazole gradient. Eluted GSNOR fractions containing the Smt-GSNOR fusion were digested overnight with Ulp-1 at 4° C. to remove the affinity tag then re-run on the Ni column under the same conditions. GSNOR was recovered in the flowthrough fraction and for crystallography is further purified by Q-Sepharose and Heparin flowthrough chromatography in 20 mM Tris pH 8.0, 1 mM DTT, 10 uM ZnSO4.
GSNOR Assay: GSNO and enzyme/NADH Solutions are made up fresh each day. The solutions are filtered and allowed to warm to room temperature. GSNO solution: 100 mM NaPO4 (pH 7.4), 0.480 mM GSNO. 396 μL of GSNO Solution is added to a cuvette followed by 8 μL of test compound in DMSO (or DMSO only for full reaction control) and mixed with the pipette tip. Compounds to be tested are made up at a stock concentration of 10 mM in 100% DMSO. 2 fold serial dilutions are done in 100% DMSO. 8 μL of each dilution are added to an assay so that the final concentration of DMSO in the assay is 1%. The concentrations of compounds tested range from 100 to 0.003 μM. Enzyme/NADH solution: 100 mM NaPO4 (pH 7.4), 0.600 mM NADH, 1.0 μg/mL GSNO Reductase. 396 μL of the Enzyme/NADH solution is added to the cuvette to start the reaction. The cuvette is placed in the Cary 3E UV/Visible Spectrophotometer and the change in 340 nm absorbance/min at 25° C. is recorded for 3 minutes. The assays are done in triplicate for each compound concentration. IC50's for each compound are calculated using the standard curve analysis in the Enzyme Kinetics Module of SigmaPlot.
Final assay conditions: 100 mM NaPO4, pH 7.4, 0.240 mM GSNO, 0.300 mM NADH, 0.5 μg/mL GSNO Reductase, and 1% DMSO. Final volume: 800 μL/cuvette.

[1] = Mouse pharmacokinetic (PK) study; format: in vivo; settings: plasma, male BALB/c mice, PO 10 mg/kg, IV 2 mg/kg
Text: The mouse was used to determine the pharmacokinetics of compounds of the invention. This species is widely used to assess the bioavailability of compounds by administering both oral (PO) and intravenous (IV) test articles. Efficacy of the compounds of the invention was compared by assessing plasma exposure in male BALB/c mice either via IV or PO administration at the times of peak activity.
Compounds of the invention were reconstituted in a phosphate buffered saline (PBS)/10% Solutol (HS 15) clear solution resulting in a concentration of 0.2 mg/mL and administered to mice (2 mg/kg) as a single IV dose. Animals were dosed via the lateral tail vein. […] The plasma was transferred into labeled polypropylene tubes and frozen at −70° C. until analyzed by LC/MS/MS.
The compounds of the invention were reconstituted in 40% Propylene Glycol/40% Propylene Carbonate/20% of a 5% Sucrose clear solution resulting in a concentration of 2 mg/mL and administered to mice (10 mg/kg) as a single oral dose via gavage. […] The plasma was transferred into labeled polypropylene tubes and frozen at −70° C. until analyzed by LC/MS/MS.
Plasma samples at each timepoint were analyzed using a LC-MS/MS with a lower limit of quantification (LLOQ) of 1 ng/mL. […]
In addition to the above PK parameters, bioavailability (% F) was calculated.

[2] = tested on: dextran sodium sulfate (DSS)-induced IBD; test: Chronic treatment model of DSS-induced IBD; format: in vivo, mouse
Text: Acute and chronic models of dextran sodium sulfate (DSS)-induced IBD in mice were used to explore efficacy of GSNORi against this disease. Acute and chronic DSS-induced IBD are widely used and well characterized models that induce pathological changes in the colon similar to those observed in the human disease. In these models and in human disease, epithelial cells within the crypts of the colon are disrupted, leading to dysfunction of the epithelial barrier and the ensuing tissue inflammation, edema, and ulceration. GSNORi therapy may benefit IBD by restoring s-nitrosoglutathione (GSNO) levels, and thus prevent or reverse the epithelial barrier dysfunction.
Experimental IBD was induced by administration of DSS in the drinking water of male C57B1/6 mice (N=10 to 12 mice per group) for 6 consecutive days. GSNORi was dosed orally at doses of 10 mg/kg/day for 14 days starting one day after cessation of DSS exposure. Efficacy of GSNORi was assessed in a blinded fashion via endoscopy after 7 days and 14 days of GSNORi dosing and via histopathology after 14 days of GSNORi dosing using a five point scale ranging from a score=0 (normal tissue) through a score=4 (ulcerative tissue damage and marked pathological changes). Levels of circulating cytokines involved in inflammatory pathways were also assessed. The effect of GSNORi was compared to vehicle treated controls. The corticosteroid, prednisolone, was used as the positive control in this study and was administered daily at 3 mg/kg/day via oral dosing. Naïve mice (N=5) were also assessed as a normal tissue control.

[3] = chronic model, oral 10 mg/kg/day for up to 14 consecutive days, treatment dosing regimen

T1 sequence (P11766 whole entry): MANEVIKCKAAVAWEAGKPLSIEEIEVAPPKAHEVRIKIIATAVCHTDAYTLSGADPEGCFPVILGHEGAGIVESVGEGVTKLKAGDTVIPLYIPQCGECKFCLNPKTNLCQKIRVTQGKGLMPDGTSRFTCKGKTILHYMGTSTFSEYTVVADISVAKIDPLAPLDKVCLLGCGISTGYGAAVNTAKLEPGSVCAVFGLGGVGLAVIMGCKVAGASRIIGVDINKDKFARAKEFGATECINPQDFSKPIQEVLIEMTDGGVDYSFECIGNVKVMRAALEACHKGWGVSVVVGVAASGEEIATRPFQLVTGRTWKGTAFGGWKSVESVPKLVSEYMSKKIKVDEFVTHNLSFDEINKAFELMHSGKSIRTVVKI

## O=C(O)c1ccc(-c2ccc3cc(O)ccc3c2)c(Cl)c1 [Example 1, 3-chloro-4-(6-hydroxynaphthalen-2-yl)benzoic acid]
GSNOR
  IC50: < 50 nM
[1]
  bioavailability: > 40%
[2]; chronic DSS-induced IBD
  colon injury (in words): attenuated colon injury
[2]; [3]
  decrease of percent of mice presenting with severe colon injury scores via endoscopy, of vehicle control: 50%
  decrease of percent of mice presenting with severe colon injury scores via histopathology, of vehicle control: 17%
